pEC50, pIC50: −log10 of the molar value. Read-outs that look alike come from different tables or passages of the source.
Experiments:
HCV NS5B-21 = HCV NS5B-21 (Hepatitis C virus genotype 1b (isolate Con1) (HCV), UniProt Q9WMX2); test: Enzyme assay, HCV NS5B-21 SPA (scintillation proximity assay); format: biochemical; conditions: triphosphates
Experimental: It is this triphosphate which is believed to be the antivirally active species. The enzyme assay described here may be used to confirm that compounds of the invention are antivirally active as the 5′-triphosphate metabolite.
The enzyme assay measures the inhibitory effect of triphosphate compounds in an HCV NS5B-21 (21-amino acid C-terminally truncated version) SPA assay (scintillation proximity assay). The assay is performed by evaluating the amount of radiolabelled ATP incorporated by HCV NS5B-21 into newly synthesized RNA using an heterogeneous biotinylated RNA template.
To determine IC50 values the compounds are tested at various concentrations in a final volume of 100 μl of reaction mixture. The reaction is stopped by addition of 0.5M EDTA solution.
The samples are transferred into flashplates precoated with streptavidin. The incorporated radioactivity is quantified using a scintillation counter (Wallac Microbeta Trilux).
The assay should include enzyme controls (about four, containing 1 μl DMSO instead of inhibitor) and background control containing all ingredients except template.
Compounds are serially diluted in DMSO on a separate dilution plate to 100× the final desired assay concentrations. […]
Incubate the plate over night and read the flash plate in the Microbeta Trilux using the protocol Flash plates H3. […]
IC50 is determined using Graphpad Prism. […]

[1] = tested on: HCV type 1b replicon (Huh-7 luc/neo, Huh-Luc); test: Replicon assay, Huh-Luc cells with HCV type 1b replicon (stable), luciferase readout; format: cell-based; conditions: Huh-Luc HCV 1b replicon, three days incubation, luciferase activity, read-out: EC50
From the text: The compounds of formula I may be examined for activity in the inhibition of HCV RNA replication in a cellular assay aimed at identifying compounds that inhibit a HCV functional cellular replicating cell line, also known as HCV replicons. A suitable cellular assay is based on a bicistronic expression construct, as described by Lohmann et al. (1999), Science vol. 285 pp. 110-113 with modifications described by Krieger et al. (2001), Journal of Virology 75: 4614-4624, in a multi-target screening strategy.
The assay utilizes the stably transfected cell line Huh-7 luc/neo (hereafter referred to as Huh-Luc). This cell line harbors an RNA encoding a bicistronic expression construct comprising the wild type NS3-NS5B regions of HCV type 1b translated from an Internal Ribosome Entry Site (IRES) from encephalomyocarditis virus (EMCV), preceded by a reporter portion (FfL-luciferase), and a selectable marker portion (neo^R, neomycine phosphotransferase). The construct is bordered by 5′ and 3′ NTRs (non-translated regions) from HCV type 1b. Continued culture of the replicon cells in the presence of G418 (neo^R) is dependent on the replication of the HCV RNA. The stably transfected replicon cells that express HCV RNA, which replicates autonomously and to high levels, encoding inter alia luciferase, are used for screening the antiviral compounds.
The replicon cells are plated in 384 well plates in the presence of the test and control compounds which are added in various concentrations. Following an incubation of three days, HCV replication is measured by assaying luciferase activity (using standard luciferase assay substrates and reagents and a Perkin Elmer ViewLux™ ultraHTS microplate imager). Replicon cells in the control cultures have high luciferase expression in the absence of any inhibitor. The inhibitory activity of a compound on luciferase activity is monitored on the Huh-Luc cells, enabling a dose-response curve for each test compound. EC50 values are then calculated, which value represents the amount of the compound required to decrease the level of detected luciferase activity by 50%, or more specifically, the ability of the genetically linked HCV replicon RNA to replicate.

| SMILES | pEC50 ([1]; Hepatitis C virus, Huh-7, 72 h) | also measured |
| --- | --- | --- |
| Nc1ccn([C@@H]2O[C@H](COP(=O)(O)OP(=O)(O)OP(=O)(O)O)[C@@H](O)[C@]2(F)Cl)c(=O)n1 [Example 27, (((2R,3R,4 S, 5R)-5-(4-amino-2-oxopyrimidin-1(2H)-yl)-4-chloro-4-fluoro-3-hydroxytetrahydrofuran-2-yl)methyl)triphosphoric acid] | – | pIC50 (HCV NS5B-21): 7.05 |
| CCC(CC)COC(=O)[C@H](C)NP(=O)(OC[C@H]1O[C@@H](n2ccc(=O)[nH]c2=O)[C@@](F)(Cl)[C@@H]1O)Oc1ccccc1 (stereo partly drawn) [Example 7] | 7.26 | – |
| COC[C@@H](C)OC(=O)[C@H](C)NP(=O)(OC[C@H]1O[C@@H](n2ccc(=O)[nH]c2=O)[C@@](F)(Cl)[C@@H]1O)Oc1ccccc1 (stereo partly drawn) [Example 20] | 7.19 | – |
| CC(C)OC(=O)[C@H](C)NP(=O)(OC[C@H]1O[C@@H](n2ccc(=O)[nH]c2=O)[C@@](F)(Cl)[C@@H]1O)Oc1ccc(C2(C)CC2)cc1 (stereo partly drawn) [Example 17] | 6.96 | – |
| CC[C@@H](C)OC(=O)[C@H](C)NP(=O)(OC[C@H]1O[C@@H](n2ccc(=O)[nH]c2=O)[C@@](F)(Cl)[C@@H]1O)Oc1ccccc1 (stereo partly drawn) [Example 5] | 7.37 | – |
| CC(C)OC(=O)[C@H](C)NP(=O)(OC[C@H]1O[C@@H](n2ccc(N)nc2=O)[C@@](F)(Cl)[C@@H]1O)Oc1ccccc1 (stereo partly drawn) [Example 26, (2S)-Isopropyl 2-(((((2R,3R,4S,5R)-5-(4-amino-2-oxopyrimidin-1(2H)-yl)-4-chloro-4-fluoro-3-hydroxytetrahydrofuran-2-yl)methoxy)(phenoxy)phosphoryl)amino)propanoate] | 7.07 | – |
| CC(C)OC(=O)[C@H](C)NP(=O)(OC[C@H]1O[C@@H](n2ccc(=O)[nH]c2=O)[C@@](F)(Cl)[C@@H]1O)Oc1cccc(C2(C)CC2)c1 (stereo partly drawn) [Example 16] | 7.04 | – |
| COc1ccc(OP(=O)(N[C@@H](C)C(=O)OC(C)C)OC[C@H]2O[C@@H](n3ccc(=O)[nH]c3=O)[C@@](F)(Cl)[C@@H]2O)cc1 (stereo partly drawn) [Example 11] | 6.82 | – |
| CC(C)OC(=O)[C@H](C)NP(=O)(OC[C@H]1O[C@@H](n2ccc(=O)[nH]c2=O)[C@@](F)(Cl)[C@@H]1O)Oc1cccc(C2CCC2)c1 (stereo partly drawn) [Example 15] | 7.05 | – |
| CC(C)OC(=O)[C@H](C)NP(=O)(OC[C@H]1O[C@@H](n2ccc(=O)[nH]c2=O)[C@@](F)(Cl)[C@@H]1O)Oc1ccc2c(c1)OCO2 (stereo partly drawn) [Example 9] | 6.72 | – |
| CCC(CC)OC(=O)[C@H](C)NP(=O)(OC[C@H]1O[C@@H](n2ccc(=O)[nH]c2=O)[C@@](F)(Cl)[C@@H]1O)Oc1ccccc1 (stereo partly drawn) [Example 22] | 7.24 | – |
| CC(C)OC(=O)[C@H](C)NP(=O)(OC[C@H]1O[C@@H](n2ccc(=O)[nH]c2=O)[C@@](F)(Cl)[C@@H]1O)Oc1cccc2ncccc12 (stereo partly drawn) [Example 24] | 5.85 | – |
| CCOC(=O)[C@H](C)NP(=O)(OC[C@H]1O[C@@H](n2ccc(=O)[nH]c2=O)[C@@](F)(Cl)[C@@H]1O)Oc1ccccc1 (stereo partly drawn) [Example 6] | 7.10 | – |
| COC[C@H](C)OC(=O)[C@H](C)NP(=O)(OC[C@H]1O[C@@H](n2ccc(=O)[nH]c2=O)[C@@](F)(Cl)[C@@H]1O)Oc1ccccc1 (stereo partly drawn) [Example 25] | 7.00 | – |
| CC(C)OC(=O)[C@H](C)NP(=O)(OC[C@H]1O[C@@H](n2ccc(=O)[nH]c2=O)[C@@](F)(Cl)[C@@H]1O)Oc1cccc(C2CC2)c1 (stereo partly drawn) [Example 12] | 6.74 | – |
| CCCCOC(=O)[C@H](C)NP(=O)(OC[C@H]1O[C@@H](n2ccc(=O)[nH]c2=O)[C@@](F)(Cl)[C@@H]1O)Oc1ccccc1 (stereo partly drawn) [Example 8] | 7.36 | – |
| O=c1ccn([C@@H]2O[C@H](COP(=O)(O)OP(=O)(O)OP(=O)(O)O)[C@@H](O)[C@]2(F)Cl)c(=O)[nH]1 [Example 3, Lithium ((2R,3R,4 S,5R)-4-chloro-5-(2,4-dioxo-3,4-dihydropyrimidin-1(2H)-yl)-4-fluoro-3-hydroxytetrahydrofuran-2-yl)methyl triphosphate] | – | pIC50 (HCV NS5B-21): 6.14 |
| CC[C@H](C)OC(=O)[C@H](C)NP(=O)(OC[C@H]1O[C@@H](n2ccc(=O)[nH]c2=O)[C@@](F)(Cl)[C@@H]1O)Oc1ccccc1 (stereo partly drawn) [Example 13] | 7.21 | – |
| CCCOC(=O)[C@H](C)NP(=O)(OC[C@H]1O[C@@H](n2ccc(=O)[nH]c2=O)[C@@](F)(Cl)[C@@H]1O)Oc1ccccc1 (stereo partly drawn) [Example 14] | 7.12 | – |
| O=c1ccn([C@@H]2O[C@H](CO)[C@@H](O)[C@]2(F)Cl)c(=O)[nH]1 [Example 1, 1-((2R,3S,4R,5R)-3-chloro-3-fluoro-4-hydroxy-5-(hydroxymethyl)tetrahydrofuran-2-yl)pyrimidine-2,4(1H,3H)-dione] | < 4.30 | – |
| C[C@H](NP(=O)(OC[C@H]1O[C@@H](n2ccc(=O)[nH]c2=O)[C@@](F)(Cl)[C@@H]1O)Oc1ccccc1)C(=O)OC1CCCCC1 (stereo partly drawn) [Example 4, (2S)-cyclohexyl 2-(((((2R,3R,4S,5R)-4-chloro-5-(2,4-dioxo-3,4-dihydropyrimidin-1(2H)-yl)-4-fluoro-3-hydroxytetrahydrofuran-2-yl)methoxy)(phenoxy)phosphoryl)amino)propanoate] | 7.05 | – |
| CC(C)OC(=O)[C@H](C)NP(=O)(OC[C@H]1O[C@@H](n2ccc(=O)[nH]c2=O)[C@@](F)(Cl)[C@@H]1O)Oc1ccccc1 (stereo partly drawn) [Example 23] | – | pEC50 [1]: 5.29 |
| COCC(COC)OC(=O)[C@H](C)NP(=O)(OC[C@H]1O[C@@H](n2ccc(=O)[nH]c2=O)[C@@](F)(Cl)[C@@H]1O)Oc1ccccc1 (stereo partly drawn) [Example 21] | 6.68 | – |
| COc1ccccc1OP(=O)(N[C@@H](C)C(=O)OC(C)C)OC[C@H]1O[C@@H](n2ccc(=O)[nH]c2=O)[C@@](F)(Cl)[C@@H]1O (stereo partly drawn) [Example 10] | 7.35 | – |

Reference: patent US10106571B2, “HCV polymerase inhibitors” (priority 2013, dated 2018)
